Measured values reported in US20260285853A1, “COMPOUNDS AND METHODS FOR MODULATING SPLICING” (REMIX THERAPEUTICS INC., priority 2023, published 2026).
Like-named read-outs stand apart in the source and are kept apart here.

What was measured:
Format in all cases: cell-based
[1] = system: HTT mRNA; test: Splicing RT-qPCR assay (THP), Table 2A
[2] = system: MYB mRNA; test: Splicing RT-qPCR assay (THP), Table 2A
[3] = system: HTT mRNA; test: Gene panel canonical junction qPCR assay, decrease in CJ mRNA, Table 3
How it was run: (§1)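 Cells: A673 or K562; 24 h compound exposure, 37 °C, 5% CO2; 11-pt 3-fold series from 10 uM final; DMSO ≤0.25%. Lysate → cDNA → qPCR with junction-spanning primers/probe for CJ transcript. ΔCt vs housekeeper, ΔΔCt vs DMSO, 2^(−ΔΔCt), % response, 4PL → IC50.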

[4] = system: MYB mRNA; test: as above
How it was run: as §1

[5] = system: SH-SY5Y (human neuroblastoma) cells; test: Cell viability, Cell Titer Glo 2.0 assay; conditions: read-out: Viability SHSY5Y.3 GI50
How it was run: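 CellTiter-Glo 2.0 luminescence read-out after 72 h compound exposure (37 °C, 5% CO2); medium-only wells as blank. DMSO 0.1% final.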

[6] = Table 2A, THP, HTT alternative junction (AJ) mRNA, read-out: HTT AJ (AC50, increase in alternative junction mRNA)
[7] = Table 2A, THP, HTT canonical junction (CJ) mRNA, read-out: HTT CJ (IC50, decrease in canonical junction mRNA)
[8] = Table 2A, THP, MYB alternative junction (AJ) mRNA, read-out: MYB AJ (AC50, increase in alternative junction mRNA)
[9] = Table 2A, THP, MYB canonical junction (CJ) mRNA, read-out: MYB CJ (IC50, decrease in canonical junction mRNA)
[10] = decrease in CJ mRNA levels, canonical junction qPCR, gene panel
[11] = Table 2A (THP), AJ mRNA increase, read-out: HTT AJ (increase in alternative junction mRNA, AC50)
[12] = Table 2A (THP), CJ mRNA decrease, read-out: HTT CJ (decrease in canonical junction mRNA, IC50)
[13] = Table 2A (THP), AJ mRNA increase, read-out: MYB AJ (increase in alternative junction mRNA, AC50)
[14] = Table 2A (THP), CJ mRNA decrease, read-out: MYB CJ (decrease in canonical junction mRNA, IC50)
[15] = decrease in canonical junction (CJ) mRNA, gene panel qPCR, Table 3

Structure (SMILES)	IC50 [1, 7] [nM]	IC50 [2, 9] [nM]	IC50 [3, 10] [nM]	IC50 [4, 10] [nM]	GI50 [5] [nM]	IC50 [1, 12] [nM]	IC50 [2, 14] [nM]	IC50 [3, 15] [nM]	IC50 [4, 15] [nM]	AC50 [1, 6] [nM]	AC50 [2, 8] [nM]	AC50 [1, 11] [nM]	AC50 [2, 13] [nM]
CCNC1CCN(c2ccc(C(=O)Nc3cn4cc(CO)nc(C)c4n3)c3nn(C)cc23)CC1 [Compound 337, 4-(4-(ethylamino)piperidin-1-yl)-N-(6-(hydroxymethyl)-8-methylimidazo[1,2-a]pyrazin-2-yl)-2-methyl-2H-indazole-7-carboxamide 2,2,2-trifluoroacetate]	–	–	–	–	> 10000	> 10000	1000 to 10000	> 10000	1000 to 10000	–	–	> 10000	1000 to 10000
CNCC1CN(c2ccc(C(=O)Nc3cn4cc(C)nc(CNS(C)(=O)=O)c4n3)c3nn(C)cc23)C1 [Compound 863]	> 10000	> 10000	> 10000	> 10000	> 10000	–	–	–	–	> 10000	> 10000	–	–
Cc1cn2cc(NC(=O)c3c(F)cc(N4CCC(NC5CCC5)CC4)c4cn(C)nc34)nc2c(C)n1 [Compound 349, 4-[4-(cyclobutylamino)-1-piperid-yl]-N-(6,8-dimethyl-imidazo [1,2-a]-pyrazin-2-yl)-6-fluoro-2-methyl-indazole-7-carbox-amide]	–	–	–	–	100 to 1000	> 10000	< 100	> 10000	< 100	–	–	> 10000	< 100
Cc1cn2cc(NC(=O)c3ccc(N4CCCC(N)C4)c4cn(C)nc34)nc2c(CNS(C)(=O)=O)n1 (stereo not drawn) [Compound 866]	> 10000	> 10000	> 10000	> 10000	> 10000	–	–	–	–	> 10000	> 10000	–	–
Cc1c2cc(NC(=O)c3c(F)cc(N4CCC(NC5CC5)CC4)c4cn(C)nc34)cc(F)c2nn1C [Compound 403, 4-[4-(cyclopropyl-amino)-1-piperidyl]-6-fluoro-N-(7-fluoro-2,3-dimethyl-indazol-5-y1)-2-methyl-indazole-7-carboxamide]	–	–	–	–	100 to 1000	> 10000	> 10000	> 10000	> 10000	–	–	> 10000	> 10000
CCNC1CCN(c2ccc(C(=O)Nc3cn4ccnc(CNS(C)(=O)=O)c4n3)c3nn(C)cc23)CC1 [Compound 850]	> 10000	> 10000	> 10000	> 10000	> 10000	–	–	–	–	> 10000	> 10000	–	–
COc1cc2c(N3CCC(NC4CC4)CC3)ccc(C(=O)Nc3cn4cc(C)nc4c(OC)n3)n2n1 [Compound 634, 4-[4-(cyclopropyl-amino)-1-piperidyl]-2-methoxy-N-(8-methoxy-2-methylimidazo[1,2-a]pyrazin-6-yl)-pyrazolo[1,5-a]pyridine-7-carboxamide]	< 100	< 100	< 100	< 100	100 to 1000	–	–	–	–	< 100	< 100	–	–
Cc1cn2cc(NC(=O)c3c(F)cc(N4CCC(NC5CC5)CC4)c4cn(C)nc34)cc(Oc3ccnnc3)c2n1 [Compound 386, 4-[4-(cyclopropylamino)-1-piperidyl]-6-fluoro-2-methyl-N-(2-methyl-8-pyridazin-4-yloxy-imidazo-[1,2-a]-pyridin-6-yl)indazole-7-carboxamide]	–	–	–	–	> 10000	> 10000	100 to 1000	> 10000	100 to 1000	–	–	1000 to 10000	100 to 1000
CC(=O)NCc1cn2cc(NC(=O)c3c(F)cc(N4CCC(NC5CC5)CC4)c4cn(C)nc34)nc2c(C)n1 [Compound 424, N-[6-(acetamidomethyl)-8-methyl-imidazo [1,2-a]pyrazin-2-yl]-4-[4-(cyclopropylamino)-1-piperidyl]-6-fluoro-2-methyl-indazole-7-carboxamide]	–	–	–	–	> 10000	> 10000	> 10000	> 10000	> 10000	–	–	> 10000	> 10000
CCNC1CCN(c2cc(F)c(C(=O)Nc3cn4cc(CO)nc(C)c4n3)c3nn(C)cc23)CC1 [Compound 379, 4-[4-(ethylamino)-1-piperidyl]-6-fluoro-N-[6-(hydroxymethyl)-8-methyl-imidazo[1,2-a]pyrazin-2-yl]-2-methyl-indazole-7-carboxamide]	–	–	–	–	> 10000	> 10000	1000 to 10000	> 10000	1000 to 10000	–	–	> 10000	1000 to 10000
COc1cc2nc(C)cn2cc1NC(=O)c1cnc(N2CCC(NC3CC3)CC2)c2cn(C)nc12 [Compound 440, 4-[4-(cyclopropylamino)-1-piperidyl]-N-(7-methoxy-2-methyl-imidazo[1,2-a]-pyridin-6-yl)-2-methyl-pyrazolo[4,3-c]-pyridine-7-carboxamide]	–	–	–	–	100 to 1000	1000 to 10000	100 to 1000	1000 to 10000	100 to 1000	–	–	1000 to 10000	< 100

Second part, led by results:

IC50 [1, 7] [nM]	IC50 [2, 9] [nM]	IC50 [3, 10] [nM]	IC50 [4, 10] [nM]	GI50 [5] [nM]	IC50 [1, 12] [nM]	IC50 [2, 14] [nM]	IC50 [3, 15] [nM]	IC50 [4, 15] [nM]	Structure (SMILES)	AC50 [1, 6] [nM]	AC50 [2, 8] [nM]	AC50 [1, 11] [nM]	AC50 [2, 13] [nM]
1000 to 10000	1000 to 10000	1000 to 10000	1000 to 10000	1000 to 10000	–	–	–	–	COc1nc2c(C(=O)Nc3ccc4c(c3)OCCO4)ccc(N3C[C@H](C)N[C@@H](C)C3)c2s1 [Compound 716, N-(2,3-dihydro-1,4-benzodioxin-6-yl)-7-[(3S,5S)-3,5-dimethylpiperazin-1-yl]-2-methoxy-1,3-benzothiazole-4-carboxamide]	> 10000	1000 to 10000	–	–
> 10000	1000 to 10000	> 10000	1000 to 10000	> 10000	–	–	–	–	Cn1cc2cc(NC(=O)c3ccc(N4CCC(NC5CC5)CC4)c4cn(C)nc34)cc(CN)c2n1 [Compound 813, N-[7-(aminomethyl)-2-methyl-indazol-5-yl]-4-[4-(cyclopropylamino)-1-piperidyl]-2-methyl-indazole-7-carboxamide]	> 10000	1000 to 10000	–	–
100 to 1000	< 100	100 to 1000	< 100	100 to 1000	–	–	–	–	CN[C@@H]1CCN(c2ccc(C(=O)Nc3cc(F)c4nn(C)cc4c3)c3nc(OC)sc23)C1 [Compound 747, N-(7-fluoro-2-methyl-indazol-5-yl)-2-methoxy-7-[(3R)-3-(methylamino)pyrrolidin-1-yl]-1,3-benzothiazole-4-carboxamide]	100 to 1000	< 100	–	–
> 10000	1000 to 10000	> 10000	1000 to 10000	> 10000	–	–	–	–	Cn1cc2cc(NC(=O)c3ccc(N4CCC(NC5CC5)CC4)c4cn(C)nc34)cc(CNc3cn[nH]c3)c2n1 [Compound 883]	> 10000	1000 to 10000	–	–
100 to 1000	< 100	100 to 1000	< 100	100 to 1000	–	–	–	–	COc1nc2c(C(=O)Nc3cc(F)c4nn(C)cc4c3)ccc(N3CCN[C@H](C)C3)c2s1 [Compound 765]	100 to 1000	< 100	–	–
–	–	–	–	100 to 1000	100 to 1000	100 to 1000	100 to 1000	100 to 1000	COc1cc2nn(C)cc2cc1NC(=O)c1ccc(N2CCC(NC3CC3)CC2)c2c(F)n(C)nc12 [Compound 477]	–	–	100 to 1000	100 to 1000
–	–	–	–	1000 to 10000	1000 to 10000	100 to 1000	1000 to 10000	100 to 1000	COc1cc2nn(C)cc2cc1NC(=O)c1ccc(N2CCC(NCC3CC3)CC2)c2cn(C)nc12 [Compound 577]	–	–	1000 to 10000	< 100
100 to 1000	< 100	100 to 1000	< 100	< 100	–	–	–	–	COc1nc2c(C(=O)Nc3ccc4nn(C)cc4c3)ccc(N3C[C@H](C)N[C@@H](C)C3)c2s1 [Compound 800, 7-[(3S,5S)-3,5-dimethylpiperazin-1-yl]-2-methoxy-N-(2-methylindazol-5-yl)-1,3-benzothiazole-4-carboxamide]	100 to 1000	< 100	–	–
100 to 1000	100 to 1000	100 to 1000	100 to 1000	100 to 1000	–	–	–	–	COc1nc2c(C(=O)Nc3cc(CO)c4nn(C)cc4c3)ccc(N3CCC(NC4CC4)CC3)c2s1 [Compound 862]	100 to 1000	100 to 1000	–	–
> 10000	1000 to 10000	> 10000	1000 to 10000	1000 to 10000	–	–	–	–	COc1nc2c(C(=O)Nc3cc4cn(C)nc4c(C)c3O)ccc(N3C[C@H](C)N[C@@H](C)C3)c2s1 [Compound 726, 7-[(3S,5S)-3,5-dimethylpiperazin-1-yl]-N-(6-hydroxy-2,7-dimethyl-indazol-5-yl)-2-methoxy-1,3-benzothiazole-4-carboxamide]	> 10000	100 to 1000	–	–
